The values that follow come from PubChem BioAssay AID220 (DTP/NCI, 2004).

The subject of the test is CD8F1 mice, subcutaneous mammary adenocarcinoma, T/C%. In words: NCI In Vivo Anticancer Drug Screen. Data for tumor model Mammary Adenocarcinoma CD8F1 (subcutaneous) in CD8F1. The note with it: higher = larger tumour. The method, boiled down: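 Antitumor activity is assessed in transplantable-tumor mice by comparing the treated group with a vehicle-treated control group. Survival or tumor size serves as the measure, reported as T divided by C.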

[1] abbreviates: endpoint: median tumor weight (est.), dose: 50.0 mg/kg/injection, schedule: Q07DX005 (ip), vehicle: saline with Tween-80.
[2] abbreviates: endpoint: median tumor weight (est.), dose: 100.0 mg/kg/injection, schedule: Q07DX005 (ip), vehicle: saline with Tween-80.
[3] abbreviates: endpoint: median tumor weight (est.), dose: 200.0 mg/kg/injection, schedule: Q07DX005 (ip), vehicle: saline with Tween-80.
Where [4] appears, read: endpoint: median tumor weight change, dose: 125.0 mg/kg/injection, schedule: Q01DX001 (ip), vehicle: saline.
Setting [5] is: endpoint: median tumor weight change, dose: 250.0 mg/kg/injection, schedule: Q01DX001 (ip), vehicle: Klucel (hydroxypropylcellulose) (HPC).
[6] abbreviates: endpoint: median tumor weight change, dose: 250.0 mg/kg/injection, schedule: Q01DX001 (ip), vehicle: saline.
Setting [7] is: endpoint: median tumor weight change, dose: 400.0 mg/kg/injection, schedule: Q01DX001 (ip), vehicle: saline with Tween-80.
Setting [8] is: endpoint: median tumor weight change, dose: 500.0 mg/kg/injection, schedule: Q01DX001 (ip), vehicle: saline.
Setting [9] is: endpoint: median tumor weight change, dose: 62.5 mg/kg/injection, schedule: Q01DX001 (ip), vehicle: saline with Tween-80.
Where [10] appears, read: endpoint: median tumor weight change, dose: 125.0 mg/kg/injection, schedule: Q01DX001 (ip), vehicle: saline with Tween-80.
[11] abbreviates: endpoint: median tumor weight change, dose: 25.0 mg/kg/injection, schedule: Q01DX001 (ip), vehicle: saline.
[12] abbreviates: endpoint: median tumor weight change, dose: 50.0 mg/kg/injection, schedule: Q01DX001 (ip), vehicle: saline.
Where [13] appears, read: endpoint: median tumor weight change, dose: 100.0 mg/kg/injection, schedule: Q01DX001 (ip), vehicle: saline.
Where [14] appears, read: endpoint: median tumor weight (est.), dose: 12.5 mg/kg/injection, schedule: Q07DX005 (ip), vehicle: saline with Tween-80.
[15] abbreviates: endpoint: median tumor weight (est.), dose: 12.5 mg/kg/injection, schedule: Q07DX005 (ip), vehicle: saline.
Setting [16] is: endpoint: median tumor weight (est.), dose: 25.0 mg/kg/injection, schedule: Q07DX005 (ip), vehicle: saline with Tween-80.
The mark [17] stands for this setting: endpoint: median tumor weight (est.), dose: 25.0 mg/kg/injection, schedule: Q07DX005 (ip), vehicle: saline.
Where [18] appears, read: endpoint: median tumor weight (est.), dose: 50.0 mg/kg/injection, schedule: Q07DX005 (ip), vehicle: saline.
Where [19] appears, read: endpoint: median tumor weight (est.), dose: 100.0 mg/kg/injection, schedule: Q07DX005 (ip), vehicle: saline.
Setting [20] is: endpoint: median tumor weight (est.), dose: 6.25 mg/kg/injection, schedule: Q07DX005 (ip), vehicle: saline with Tween-80.

Molecules are shown by their SMILES. Several values for one entry are separate records, joined by “and”; a condition that tells them apart may be missing. Equal values may be shown once. Results filed as inconclusive are left out.

Take `OCC1OC(n2cnc3c(=S)nc[nH]c32)C(O)C1O` (configuration not stated): the T/C under setting [1] was 23 % of control; the T/C under setting [2] was 34 % of control; the T/C under setting [3] is 13 % of control and 37 % of control; the T/C (endpoint: median tumor weight (est.), dose: 400.0 mg/kg/injection, schedule: Q07DX005 (ip), vehicle: saline with Tween-80) was 8 % of control and 15 % of control; the T/C (endpoint: median tumor weight change, dose: 25.0 mg/kg/injection, schedule: Q01DX001 (ip), vehicle: saline with Tween-80) was 73 % of control; the T/C (endpoint: median tumor weight change, dose: 50.0 mg/kg/injection, schedule: Q01DX001 (ip), vehicle: saline with Tween-80) was 71 % of control. Moreover, the T/C is 78 % of control (endpoint: median tumor weight change, dose: 100.0 mg/kg/injection, schedule: Q01DX001 (ip), vehicle: saline with Tween-80); 78 % of control under setting [4]; 56 % of control (endpoint: median tumor weight change, dose: 200.0 mg/kg/injection, schedule: Q01DX001 (ip), vehicle: saline with Tween-80); 89 % of control under setting [5]; 72 % of control under setting [6]; 60 % of control under setting [7]. Besides, the T/C reads like this: (endpoint: median tumor weight change, dose: 500.0 mg/kg/injection, schedule: Q01DX001 (ip), vehicle: Klucel (hydroxypropylcellulose) (HPC)) 79 % of control; under setting [8], 97 % of control; (endpoint: median tumor weight change, dose: 1000.0 mg/kg/injection, schedule: Q01DX001 (ip), vehicle: Klucel (hydroxypropylcellulose) (HPC)) 52 % of control; (endpoint: median tumor weight change, dose: 1000.0 mg/kg/injection, schedule: Q01DX001 (ip), vehicle: saline) 53 % of control; (endpoint: median tumor weight change, dose: 2000.0 mg/kg/injection, schedule: Q01DX001 (ip), vehicle: Klucel (hydroxypropylcellulose) (HPC)) 26 % of control; (endpoint: median tumor weight change, dose: 2000.0 mg/kg/injection, schedule: Q01DX001 (ip), vehicle: saline) 67 % of control.

For the compound `FC(F)(F)c1nc2nc(Cl)c(Cl)nc2[nH]1`, the T/C is 77 % of control under setting [9]; 114 % of control under setting [10]; 74 % of control (endpoint: median tumor weight change, dose: 250.0 mg/kg/injection, schedule: Q01DX001 (ip), vehicle: saline with Tween-80).

`CC1(C)COCN1COCCOCN1COCC1(C)C`: the T/C under setting [11] was 100 % of control, the T/C under setting [12] is 109 % of control and the T/C under setting [13] is 95 % of control.

As to `Cc1c2cc[n+](C)cc2c(C)c2c1[nH]c1ccc(O)cc12`, the T/C runs as follows: (endpoint: median tumor weight change, dose: 0.62 mg/kg/injection, schedule: Q01DX001 (ip), vehicle: saline) 101 % of control; (endpoint: median tumor weight change, dose: 1.25 mg/kg/injection, schedule: Q01DX001 (ip), vehicle: saline) 67 % of control; (endpoint: median tumor weight change, dose: 2.5 mg/kg/injection, schedule: Q01DX001 (ip), vehicle: saline) 60 % of control.

As for `Cc1cn(C2CC3[O][Sn]([c]4ccccc4)([c]4ccccc4)[O]CC3O2)c(=O)[nH]c1=O` (configuration not stated), the T/C was 73 % of control under setting [14]; 63 % of control under setting [15]; 40 % of control under setting [16]; 16 % of control under setting [17]; 67 % of control under setting [1]; 84 % of control under setting [18]. Also, the T/C by setting is: under setting [2], 81 % of control; under setting [19], 49 % of control; under setting [3], 73 % of control; (endpoint: median tumor weight (est.), dose: 200.0 mg/kg/injection, schedule: Q07DX005 (ip), vehicle: saline) 74 % of control; (endpoint: median tumor weight (est.), dose: 500.0 mg/kg/injection, schedule: Q07DX005 (ip), vehicle: saline with Tween-80) 47 % of control.

With `COC(=O)C(Cl)(Cl)N=Nc1c(Cl)cc(Cl)c(C)c1Cl`, the T/C reads like this: under setting [16], 104 % of control; under setting [2], 71 % of control; under setting [3], 85 % of control and 110 % of control; under setting [7], 78 % of control.

Consider `C(=N/NC1=NCCN1)/c1c2ccccc2c(/C=N\NC2=NCCN2)c2ccccc12`, for which the T/C was 78 % of control under setting [11], 101 % of control under setting [12] and 37 % of control under setting [13].

With `CCc1c(CC(=O)O)c2cc(C)ccc2n1Cc1ccc(Cl)cc1`, the T/C was 89 % of control (endpoint: median tumor weight change, dose: 125.0 mg/kg/injection, schedule: Q01DX001 (ip), vehicle: Klucel (hydroxypropylcellulose) (HPC)) and 101 % of control under setting [5].

Regarding `C=C/C(C)=C/[C@H](C)C(=O)C[C@H](O)CC1CC(=O)NC(=O)C1`, the T/C is, setting by setting: under setting [20], 41 % of control; under setting [14], 62 % of control; under setting [2], 157 % of control; under setting [3], 50 % of control.

Consider `C=CC(=O)N1CN(C(=O)C=C)CN(C(=O)C=C)C1`, for which the T/C was 89 % of control (endpoint: median tumor weight (est.), dose: 3.12 mg/kg/injection, schedule: Q07DX005 (ip), vehicle: saline with Tween-80); 111 % of control under setting [20]; 31 % of control under setting [14].

With `Nc1nc2c(C(=O)N3CCCC3)nnn2c2ccccc12`, the T/C is, setting by setting: under setting [9], 77 % of control; under setting [10], 87 % of control.

In the case of `Brc1ccc(C[N+]23CN4CN(CN(C4)C2)C3)cc1`, the T/C runs as follows: under setting [16], 90 % of control; under setting [1], 96 % of control; under setting [2], 180 % of control.

Regarding `[Cl][Hg][Cl]`, the T/C (endpoint: median tumor weight change, dose: 1.56 mg/kg/injection, schedule: Q01DX001 (ip), vehicle: saline) was 87 % of control and the T/C (endpoint: median tumor weight change, dose: 3.12 mg/kg/injection, schedule: Q01DX001 (ip), vehicle: saline) was 71 % of control.

Consider `O=C(Nc1ccc(N=C=S)cc1Cl)c1cc(Cl)cc(Cl)c1O`, for which the T/C was 79 % of control (endpoint: median tumor weight (est.), dose: 12.5 mg/kg/injection, schedule: Q07DX005 (ip), vehicle: Klucel (hydroxypropylcellulose) (HPC)); 118 % of control under setting [15]; 49 % of control (endpoint: median tumor weight (est.), dose: 25.0 mg/kg/injection, schedule: Q07DX005 (ip), vehicle: Klucel (hydroxypropylcellulose) (HPC)); 96 % of control under setting [17]; 26 % of control (endpoint: median tumor weight (est.), dose: 50.0 mg/kg/injection, schedule: Q07DX005 (ip), vehicle: Klucel (hydroxypropylcellulose) (HPC)); 111 % of control under setting [18]. Further, the T/C under setting [19] is 78 % of control.

As to `C=C1C(=O)OC2CC(C)C3C4OC4C(O)C3(C)C(O)C12` (configuration not stated), the T/C by setting is: (endpoint: median tumor weight change, dose: 62.5 mg/kg/injection, schedule: Q01DX001 (ip), vehicle: saline) 119 % of control; under setting [4], 80 % of control; under setting [6], 74 % of control; under setting [8], 88 % of control.

In the case of `NC(=O)c1ncn2c(=O)n(CCCl)nnc12`, the T/C runs as follows: (endpoint: median tumor weight change, dose: 6.25 mg/kg/injection, schedule: Q01DX001 (ip), vehicle: suspension in saline) 69 % of control; (endpoint: median tumor weight change, dose: 12.5 mg/kg/injection, schedule: Q01DX001 (ip), vehicle: suspension in saline) 76 % of control; (endpoint: median tumor weight change, dose: 25.0 mg/kg/injection, schedule: Q01DX001 (ip), vehicle: suspension in saline) 45 % of control; (endpoint: median tumor weight change, dose: 50.0 mg/kg/injection, schedule: Q01DX001 (ip), vehicle: suspension in saline) 41 % of control and 46 % of control.

Take `CCCCCCCCCCCCCCCCP(=O)(OCCOCCCCCC)OCCOCCCCCC`: the T/C is, setting by setting: (endpoint: median tumor weight (est.), dose: 3.12 mg/kg/injection, schedule: Q07DX005 (ip), vehicle: saline) 118 % of control; (endpoint: median tumor weight (est.), dose: 6.25 mg/kg/injection, schedule: Q07DX005 (ip), vehicle: saline) 156 % of control; under setting [15], 85 % of control; under setting [17], 72 % of control; under setting [18], 94 % of control; under setting [19], 55 % of control.

Regarding `Nc1ccc(Cl)cc1N`, the T/C by setting is: (endpoint: median tumor weight (est.), dose: 12.5 mg/kg/injection, schedule: Q07DX005 (ip), vehicle: saline + alcohol) 92 % of control; (endpoint: median tumor weight (est.), dose: 25.0 mg/kg/injection, schedule: Q07DX005 (ip), vehicle: saline + alcohol) 100 % of control; (endpoint: median tumor weight (est.), dose: 50.0 mg/kg/injection, schedule: Q07DX005 (ip), vehicle: saline + alcohol) 100 % of control; (endpoint: median tumor weight (est.), dose: 100.0 mg/kg/injection, schedule: Q07DX005 (ip), vehicle: saline + alcohol) 88 % of control; (endpoint: median tumor weight (est.), dose: 200.0 mg/kg/injection, schedule: Q07DX005 (ip), vehicle: saline + alcohol) 123 % of control.
